In patent publication US6441195B1, “Substituted sulphonylamino(thio) carbonyl compounds” (Bayer Aktiengesellschaft, priority 1995, dated 2002):

Assays:
Format in all cases: in vivo
weeds = assay: Pre-emergence test (greenhouse), activity against weeds; conditions: in words
Protocol: Solvent: 5 parts by weight of acetone
Emulsifier: 1 part by weight of alkylaryl polyglycol ether
(§1) To produce a suitable preparation of the active compound, 1 part by weight of active compound is mixed with the stated amount of solvent, the stated amount of emulsifier is added and the concentrate is diluted with water to the desired concentration.
(§2) Seeds of the test plants are sown in normal soil. After about 24 hours, the soil is watered with the preparation of active compound. Advantageously, the amount of water per unit area is kept constant. The active compound concentration in the preparation is not important, only the active compound appliation rate per unit area matters.
(§3) After three weeks, the degree of damage to the plants is rated in % damage in comparison to the development of the untreated control.
(§4) 0%=no action (like untreated control)

Maize = assay: Pre-emergence test/Greenhouse, Maize; conditions: in vivo
Protocol: as §1, §2, §3, §4

Soya beans = assay: Pre-emergence test/Greenhouse, Soya beans; conditions: in vivo
Protocol: as §1, §2, §3, §4

Lolium = assay: Pre-emergence test/Greenhouse, Lolium; conditions: after three weeks
Protocol: as §1, §2, §3, §4

Poa = assay: Pre-emergence test/Greenhouse, Poa; conditions: after three weeks
Protocol: as §1, §2, §3, §4

Ambrosia = assay: Pre-emergence test/Greenhouse, Ambrosia; conditions: after three weeks
Protocol: as §1, §2, §3, §4

Matricaria = assay: Pre-emergence test/Greenhouse, Matricaria; conditions: after three weeks
Protocol: as §1, §2, §3, §4

Solanum = assay: Pre-emergence test/Greenhouse, Solanum; conditions: after three weeks
Protocol: as §1, §2, §3, §4

SMILES | activity against weeds (weeds) | degree of damage to the plants (% damage vs untreated control), Maize (Maize) [%] | degree of damage to the plants (% damage vs untreated control), Soya beans (Soya beans) [%] | degree of damage to the plants (% damage vs untreated control), Lolium (Lolium; 60 g of ai./ha) [%] | degree of damage to the plants (% damage vs untreated control), Poa (Poa; 60 g of ai./ha) [%] | degree of damage to the plants (% damage vs untreated control), Ambrosia (Ambrosia; 60 g of ai./ha) [%] | degree of damage to the plants (% damage vs untreated control), Matricaria (Matricaria; 60 g of ai./ha) [%] | degree of damage to the plants (% damage vs untreated control), Solanum (Solanum; 60 g of ai./ha) [%] | degree of damage to the plants (% damage vs untreated control), Poa (Poa; 125 g of ai./ha) [%] | degree of damage to the plants (% damage vs untreated control), Ambrosia (Ambrosia; 125 g of ai./ha) [%] | degree of damage to the plants (% damage vs untreated control), Matricaria (Matricaria; 125 g of ai./ha) [%] | degree of damage to the plants (% damage vs untreated control), Solanum (Solanum; 125 g of ai./ha) [%] | degree of damage to the plants (% damage vs untreated control), Lolium (Lolium; 125 g of ai./ha) [%] | degree of damage to the plants (% damage vs untreated control), Lolium (Lolium; 15 g of ai./ha) [%] | degree of damage to the plants (% damage vs untreated control), Poa (Poa; 15 g of ai./ha) [%] | degree of damage to the plants (% damage vs untreated control), Ambrosia (Ambrosia; 15 g of ai./ha) [%] | degree of damage to the plants (% damage vs untreated control), Matricaria (Matricaria; 15 g of ai./ha) [%] | degree of damage to the plants (% damage vs untreated control), Solanum (Solanum; 15 g of ai./ha) [%]
CCSc1nn(C(=O)NS(=O)(=O)c2c(C)cccc2C(=O)OC(C)C)c(=O)n1C [Example 42] | very strong activity against weeds | 10 | 10 | 95 | 95 | 95 | 95 | 95 |  |  |  |  |  |  |  |  |  | 
C=CCn1c(SCCF)nn(C(=O)NS(=O)(=O)c2c(C)cccc2C(=O)OC)c1=O [Example 153] | very strong activity against weeds | 0 | 30 |  |  |  |  |  | 95 | 95 | 70 | 95 |  |  |  |  |  | 
CCOC(=O)c1scc(C)c1S(=O)(=O)NC(=O)n1nc(SCC)n(C)c1=O [Example 56] | very strong activity against weeds |  | 0 |  |  |  |  |  | 80 |  | 100 | 95 | 60 |  |  |  |  | 
CCCOC(=O)c1cccc(C)c1S(=O)(=O)NC(=O)n1nc(SCC)n(C)c1=O [Example 48] | very strong activity against weeds | 30 | 20 |  |  |  |  |  | 95 | 95 | 100 | 95 | 95 |  |  |  |  | 
CCCc1nn(C(=O)NS(=O)(=O)c2c(C)csc2C(=O)OC)c(=O)n1OC [Example 39] | very strong activity against weeds | 0 | 20 | 95 | 90 | 95 | 70 | 90 |  |  |  |  |  |  |  |  |  | 
COC(=O)c1cccc(C)c1S(=O)(=O)NC(=O)n1nc(OCC(F)(F)F)n(C2CC2)c1=O [Example 142] | very strong activity against weeds | 20 | 10 |  |  |  |  |  |  |  |  |  |  | 95 | 80 | 80 | 80 | 80
CCCOC(=O)c1cccc(C)c1S(=O)(=O)NC(=O)n1nc(OCC)n(CC)c1=O [Example 45] | very strong activity against weeds | 10 | 20 |  |  |  |  |  | 95 | 95 | 90 | 95 | 90 |  |  |  |  | 
